“And” between values parts separate entries of the source, which are not always exact repeats. Equal entries are not always repeated.
Experiments:
ovariectomized rats = test: Chronic OVX (treatment model) oral dosing; format: in vivo, rat; details: once per day for 10 weeks, from 6 weeks post-ovariectomy, not significant
Description: Lead compounds may also be tested in chronic OVX animals (treatment model). An exemplary protocol for treatment of established bone loss in ovariectomized animals that can be used to assess efficacy of anabolic agents may be performed as follows. Briefly, 80 to 100 six month old female, Sprague-Dawley rats are subjected to sham surgery (sham OVX) or ovariectomy (OVX) at time 0, and 10 rats are sacrificed to serve as baseline controls. Body weights are recorded weekly during the experiment. After approximately 6 weeks (42 days) or more of bone depletion, 10 sham OVX and 10 OVX rats are randomly selected for sacrifice as depletion period controls. Of the remaining animals, 10 sham OVX and 10 OVX rats are used as placebo-treated controls. The remaining OVX animals are treated with 3 to 5 doses of test drug for a period of 5 weeks (35 days). As a positive control, a group of OVX rats can be treated with an agent such as PTH, a known anabolic agent in this model (Kimmel, et al., Endocrinology (1993) 132:1577-84). […]
(§1) Lovastatin and simvastatin were analyzed in vivo using an acute OVX (prevention model) and/or chronic (treatment model) OVX model system, as described above under “Additional In Vivo Assays”.
Simvastatin was also examined in a chronic OVX study. […] At the 50 mg/kg/day dose, an 86% (not significant) increase in the bone formation rate in the proximal tibia was measured.

[1] = tested on: serum response element (SRE)-luciferase reporter gene / CRE-luciferase reporter gene; test: negative control OBSRE (SRE-luciferase) and/or glucagon (CRE-luciferase) assays; format: cell-based, murine
Excerpt: In the negative control OBSRE assay, a murine osteoblast cell line, such as CCC-4 expressing a serum response element (SRE)-luciferase reporter gene is used (see WO96/07733). In the negative control glucagon assay, a glucagon receptor-positive BHK cell expressing a CRE-luciferase reporter gene is used (see U.S. Pat. No. 5,698,672).

[2] = tested on: ovariectomized Sprague-Dawley rats; test: Acute OVX (prevention model) oral dosing; format: in vivo, rat
Description: Lead compounds can also be tested in acute ovariectomized animals (prevention model) using an in vivo dosing assay. Such assays may also include an estrogen-treated group as a control. An exemplary subcutaneous dosing assay is performed as follows:
In a typical study, 80 three-month-old female Sprague-Dawley rats are weight-matched and divided into eight groups, with ten animals in each group. This includes a baseline control group of animals sacrificed at the initiation of the study; three control groups (sham ovariectomized (sham OVX)+vehicle only; ovariectomized (OVX)+vehicle only; PBS-treated OVX); and a control OVX group that is administered a compound known to promote bone growth. Three dosage levels of the compound to be tested are administered to the remaining three groups of OVX animals.
Since ovariectomy (OVX) induces hyperphagia, all OVX animals are pair-fed with sham OVX animals throughout the 35 day study. Briefly, test compound, positive control compound, PBS, or vehicle alone is administered orally or subcutaneously once per day for 35 days. Alternatively, test compound can be formulated in implantable pellets that are implanted for 35 days, or may be administered orally, such as by gastric gavage. All animals, including sham OVX/vehicle and OVX/vehicle groups, are injected intraperitoneally with calcein nine days and two days before sacrifice (two injections of calcein administered each designated day, to ensure proper labeling of newly formed bone). Weekly body weights are determined. At the end of the 35-day cycle, the animals' blood and tissues are processed as described above.
as §1
Lovastatin was examined in an acute OVX study. Briefly, 59-0326 was orally administered (35, 7, or 1.4 mg/kg/day; once per day for 35 days) immediately following ovariectomy. At the end of the study, the animals' blood and tissues samples were processed, and the following data were obtained.
Similarly, lovastatin was orally administered (0.1, 1, 5, 10, 20 or 40 mg/kg/day; once per day for 35 days) immediately following ovariectomy. Two individuals histomorphometrically analyzed samples removed from animals that received the 10 mg/kg/day dose. These analyses indicated an increase in trabecular bone volume of 38% (not significant) or 90% (p<0.02) in the proximal tibia. The bone formation rate in the proximal tibia was determined to have increased 74% (p=0.004) in animals that received a 10 mg/kg/day dose or 37% (p<0.008) in animals that received a 1 mg/kg/day dose. In samples from animals that received the 1 mg/kg/day dose, mineral apposition rate in the proximal tibia was increased 22%.

rabbits = details: Wang et al. 1995; cited from earlier work
[3] = tested on: osteoprogenitor cells cloned from bone marrow stroma; details: Cui et al. 1996; cited from earlier work
[4] = 7 mg/kg/day oral, once per day for 35 days

Row | SMILES | increase in the bone formation rate in the proximal tibia (ovariectomized rats; 10 mg/kg/day oral) | increase in the bone formation rate in the proximal tibia (ovariectomized rats; 50 mg/kg/day oral) | dose-dependent stimulatory effect in control assays [1] | increase in trabecular bone volume in the proximal tibia ([2]; 7 mg/kg/day oral, 35 days, histomorphometric analysis by two individuals (p<0.001; p=0.0503)) | increase in trabecular bone volume in the distal femur ([2]; 7 mg/kg/day oral, 35 days, not significant) | increase in bone formation rate in the distal femur ([2]; 7 mg/kg/day oral, 35 days, p=0.052) | increase in cortical thickness (pQCT) [2, 4] | increase in trabecular density (pQCT) [2, 4] | increase in mineral apposition rate in the proximal tibia ([2]; second study, 1 mg/kg/day oral, 35 days) | increase in bone formation rate in the proximal tibia ([2]; second study, 1 mg/kg/day oral, 35 days, p<0.008) | increase in bone formation rate in the proximal tibia ([2]; second study, 10 mg/kg/day oral, 35 days, p=0.004) | increase in trabecular bone volume in the proximal tibia ([2]; second study, 10 mg/kg/day oral, 35 days, two individuals (not significant; p<0.02), 10 mg/kg/day) | effect on bone formation in the absence of steroid treatment (rabbits) | inhibition of the bone resorption resulting from steroid administration (rabbits) | triglyceride vesicles accumulated on dexamethasone treatment [3]
1 | CCC(C)(C)C(=O)O[C@H]1C[C@@H](C)C=C2C=C[C@H](C)[C@H](CC[C@@H]3C[C@@H](O)CC(=O)O3)[C@H]21 [Simvastatin, simvastatin] | 114% | 86% | – | – | – | – | – | – | – | – | – | – | – | – | –
2 | CC[C@H](C)C(=O)O[C@H]1C[C@@H](C)C=C2C=C[C@H](C)[C@H](CC[C@@H]3C[C@@H](O)CC(=O)O3)[C@H]21 [Lovastatin, lovastatin] | – | – | not in control assays | 110% and 25% | 23% | 40% | 14% | 20% | 22% | 37% | 74% | 38% and 90% | no effect on bone formation | able to inhibit the bone resorption | diminished triglyceride vesicles

— patent US6642216B2, “Isoprenoid pathway inhibitors for stimulating bone growth” (ZymoGenetics Corporation, priority 1996, dated 2003)
